Results as given in the NIST ThermoML archive (doi:10.1007/s10765-011-1087-7).

Assays:
[1] = 101 kPa, Liquid; for viscosity: Capillary tube (Ostwald / Ubbelohde) method; for speed of sound: Pulse-echo method
[2] = refractive index (Na D-line) (dimensionless); conditions: 101.33 kPa, Liquid
[3] = xn = mol fraction of the nth substance listed; conditions: 101 kPa, Liquid, x1 = 1; for speed of sound: Pulse-echo method
[4] = refractive index (Na D-line) (dimensionless); xn = mol fraction of the nth substance listed; conditions: 101 kPa, Liquid, x1 = 1

Clc1ccc(Cl)c(Cl)c1 [1,2,4-trichlorobenzene]
Conditions	mass density, [1] [kg/m3]	refractive index, [2]	speed of sound, [1] [m/s]	viscosity, [1] [mPa·s]
298.15 K	1448.41	1.548	1272	1.926
303.15 K	1442.43	1.546	1256.4	1.76
308.15 K	1436.45	1.543	1240.9	1.617

Clc1ccccc1Cl [1,2-dichlorobenzene]
Conditions	mass density, [1] [kg/m3]	refractive index, [2]	speed of sound, [1] [m/s]	viscosity, [1] [mPa·s]
298.15 K	1300.3	1.546	1281.6	1.314
303.15 K	1294.72	1.544	1265.2	1.235
308.15 K	1289.13	1.541	1245.9	1.144

Clc1ccccc1Cl [1,2-dichlorobenzene] + CCCCCCC(C)O
Conditions	mass density, [3] [kg/m3]	refractive index, [4]	speed of sound, [3] [m/s]	viscosity, [3] [mPa·s]
298.15 K	1300.3	1.546	1281.6	1.314
303.15 K	1294.72	1.544	1265.2	1.235
308.15 K	1289.13	1.541	1245.9	1.144

Clc1cccc(Cl)c1 [1,3-dichlorobenzene]
Conditions	mass density, [1] [kg/m3]	refractive index, [2]	speed of sound, [1] [m/s]	viscosity, [1] [mPa·s]
298.15 K	1283.45	1.544	1255	1.014
303.15 K	1277.79	1.541	1238.4	0.946
308.15 K	1272.1	1.538	1221.9	0.891

Clc1cccc(Cl)c1 [1,3-dichlorobenzene] + CCCCCCC(C)O
Conditions	mass density, [3] [kg/m3]	refractive index, [4]	speed of sound, [3] [m/s]	viscosity, [3] [mPa·s]
298.15 K	1283.45	1.544	1255	1.014
303.15 K	1277.79	1.541	1238.4	0.946
308.15 K	1272.1	1.538	1221.9	0.891

CCCCCCC(C)O (configuration not stated) [2-octanol]
Conditions	mass density, [1] [kg/m3]	refractive index, [2]	speed of sound, [1] [m/s]	viscosity, [1] [mPa·s]
298.15 K	816.39	1.4226	1307	6.566
303.15 K	812.58	1.4206	1289	5.178
308.15 K	808.74	1.4185	1271	4.162
